Laboratory results taken from BindingDB's records for doi:10.1021/acs.jmedchem.9b00775 (University of North Carolina at Chapel Hill, 2020).

Legend:
[1] = molecular target: T1, Nonstructural protein 3 (Zika virus, UniProt A0A024AXB9); experiment: Inhibition of NS2B-NS3 protease in Zika virus Puerto Rico/PRVABC5 infected in human Huh7 cells assessed as antiviral activity measured 48 hrs post infection by RT-PCR method
[2] = molecular target: T1, Nonstructural protein 3; experiment: Inhibition of NS2B-NS3 protease in Zika virus Puerto Rico/PRVABC5 assessed as antiviral activity measured 48 hrs post infection by plaque reduction assay
[3] = molecular target: T1, Nonstructural protein 3; experiment: Inhibition of NS2B-NS3 protease in Zika virus Puerto Rico/PRVABC5 infected in African green monkey Vero cells assessed as antiviral activity measured 48 hrs post infection by RT-PCR method
[4] = Inhibition of RNA-dependent RNA polymerase in Zika virus H/PAN/2016/BEI-259634 infected in human NSC assessed as antiviral activity measured 72 hrs post infection by CellTiter-Glo assay
[5] = Inhibition of RNA-dependent RNA polymerase in Zika virus PRVABC59/Human/2015/Puerto Rico infected in human NSC assessed as antiviral activity measured 72 hrs post infection by CellTiter-Glo assay
[6] = Inhibition of MTase in Zika virus infected in African green monkey Vero cells assessed as antiviral activity incubated for 5 days by inverted microscopic method
[7] = Inhibition of RNA-dependent RNA polymerase in Zika virus MR766 infected in African green monkey Vero E6 cells assessed as antiviral activity
[8] = Inhibition of RNA-dependent RNA polymerase in Zika virus MR766 infected in African green monkey Vero cells assessed as antiviral activity after 72 hrs by DAPI staining based assay
[9] = Inhibition of RNA-dependent RNA polymerase in Zika virus PRVABC59 infected in African green monkey Vero cells assessed as antiviral activity measured 96 hrs post infection by plaque assay
[10] = Inhibition of RNA-dependent RNA polymerase in Zika virus MR766 infected in HEK293 cells assessed as antiviral activity by measuring NS1 protein expression preincubated for 1 hr followed by viral infection and measured after 24 hrs by TR-FRET assay
[11] = Inhibition of RNA-dependent RNA polymerase in Zika virus PRVABC59 infected in African green monkey Vero cells infected with supernatants from virus-infected human SNB-19 cells treated with compound for 1 hr assessed as antiviral activity after 48 to 72 hrs
[12] = molecular target: T2, Genome polyprotein (Zika virus, UniProt A0A143MHK7); experiment: Inhibition of RNA-dependent RNA polymerase in Zika virus MR766 infected in African green monkey Vero cells assessed as antiviral activity by Alexa Fluor 488/DAPI staining based assay
T2 sequence (A0A143MHK7 whole entry): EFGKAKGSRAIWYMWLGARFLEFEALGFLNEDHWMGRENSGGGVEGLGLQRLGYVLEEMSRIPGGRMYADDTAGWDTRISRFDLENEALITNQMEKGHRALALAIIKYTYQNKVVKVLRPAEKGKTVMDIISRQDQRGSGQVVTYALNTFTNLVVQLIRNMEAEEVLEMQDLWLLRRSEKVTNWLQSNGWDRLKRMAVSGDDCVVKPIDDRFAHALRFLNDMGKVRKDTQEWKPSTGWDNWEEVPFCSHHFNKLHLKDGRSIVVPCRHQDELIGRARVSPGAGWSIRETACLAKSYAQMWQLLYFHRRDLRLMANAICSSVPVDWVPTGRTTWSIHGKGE

[13] = molecular target: T2, Genome polyprotein; experiment: Inhibition of RNA-dependent RNA polymerase in Zika virus MR766 infected in African green monkey Vero cells assessed as antiviral activity by measuring reduction in virus-induced cytopathic effect after 5 days by MTS assay
[14] = molecular target: T2, Genome polyprotein; experiment: Inhibition of RNA-dependent RNA polymerase in Zika virus MR766 infected in African green monkey Vero cells assessed as antiviral activity by methylene blue staining based by Plaque reduction assay
[15] = molecular target: T2, Genome polyprotein; experiment: Inhibition of RNA-dependent RNA polymerase in Zika virus MR766 infected in African green monkey Vero cells assessed as antiviral activity by measuring reduction in virus-yield
[16] = molecular target: T2, Genome polyprotein; experiment: Inhibition of RNA-dependent RNA polymerase in Zika virus PRVABC-59 infected in human HuH7 cells assessed as antiviral activity by neutral dye based colorimetric method
[17] = molecular target: T2, Genome polyprotein; experiment: Inhibition of RNA-dependent RNA polymerase in Zika virus Ugandan MR-766 infected in human RD cells assessed as antiviral activity by neutral dye based colorimetric method
[18] = molecular target: T2, Genome polyprotein; experiment: Inhibition of RNA-dependent RNA polymerase in Zika virus PRVABC-59 infected in African green monkey Vero cells assessed as antiviral activity by neutral dye based colorimetric method
[19] = molecular target: T2, Genome polyprotein; experiment: Inhibition of RNA-dependent RNA polymerase in Zika virus Ugandan MR-766 infected in human Huh-7 cells assessed as antiviral activity by neutral dye based colorimetric method
[20] = molecular target: T2, Genome polyprotein; experiment: Inhibition of RNA-dependent RNA polymerase in Zika virus PRVABC-59 infected in human RD cells assessed as antiviral activity by neutral dye based colorimetric method
[21] = molecular target: T2, Genome polyprotein; experiment: Inhibition of RNA-dependent RNA polymerase in Zika virus Malaysian P 6-740 infected in African green monkey Vero cells assessed as antiviral activity by neutral dye based colorimetric method
[22] = molecular target: T2, Genome polyprotein; experiment: Inhibition of RNA-dependent RNA polymerase in Zika virus Ugandan MR-766 infected in African green monkey Vero cells assessed as antiviral activity by neutral dye based colorimetric method
[23] = molecular target: T2, Genome polyprotein; experiment: Inhibition of RNA-dependent RNA polymerase in Zika virus Malaysian P 6-740 infected in human Huh-7 cells assessed as antiviral activity by neutral dye based colorimetric method
[24] = Inhibition of RNA-dependent RNA polymerase in Zika virus infected in human NPC assessed as antiviral activity by DAPI-staining based assay
[25] = Inhibition of RNA-dependent RNA polymerase in Zika virus infected in African green monkey Vero cells assessed as antiviral activity by DAPI-staining based assay
[26] = molecular target: T2, Genome polyprotein; experiment: Inhibition of RNA-dependent RNA polymerase in Zika virus FSS13025/2010 infected in African green monkey Vero cells assessed as antiviral activity measured 48 hrs post infection by plaque assay
[27] = molecular target: T2, Genome polyprotein; experiment: Inhibition of RNA-dependent RNA polymerase in Zika virus FSS13025/2010 infected in African green monkey Vero cells assessed as antiviral activity by measuring viral RNA by RT-qPCR method
[28] = molecular target: T2, Genome polyprotein; experiment: Inhibition of RNA-dependent RNA polymerase in Zika virus GZ01/2016 infected in African green monkey Vero cells assessed as antiviral activity measured 48 hrs post infection by plaque assay
[29] = molecular target: T2, Genome polyprotein; experiment: Inhibition of RNA-dependent RNA polymerase in Zika virus GZ01/2016 infected in African green monkey Vero cells assessed as antiviral activity by measuring viral RNA by RT-qPCR method

T1 sequence (A0A024AXB9 whole entry): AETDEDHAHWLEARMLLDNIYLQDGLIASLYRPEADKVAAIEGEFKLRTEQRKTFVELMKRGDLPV

Work on `CO[C@@H]1[C@@H](OC(N)=O)[C@@H](O)[C@H](Oc2ccc3c(O)c(NC(=O)c4ccc(O)c(CC=C(C)C)c4)c(=O)oc3c2C)OC1(C)C` [Carbamic acid 5-hydroxy-6-{4-hydroxy-3-[4-hydroxy-3-(3-methyl-but-2-enyl)-benzoylamino]-8-methyl-2-oxo-2H-chromen-7-yloxy}-3-methoxy-2,2-dimethyl-tetrahydro-pyran-4-yl ester(Novobiocin)] yielded an EC50 [1] of 24.4 µM, an EC50 [2] of 24.4 µM and an EC50 [3] of 24.4 µM.

Compound `CC(C)OC(=O)[C@H](C)NP(=O)(OC[C@H]1O[C@@H](n2ccc(=O)[nH]c2=O)[C@H](O)[C@@H]1O)Oc1ccccc1` (stereo partly specified) has an EC50 [4] of 2 µM and an EC50 [5] of 1 µM.

Compound `O=C1c2cccc3cccc(c23)C(=O)N1CCc1ccc(S(=O)(=O)N2CCN(c3ccccc3)CC2)cc1` has an EC50 [6] of 4.8 µM.

For `CCCCCOCc1c(Nc2ccc(S(N)(=O)=O)cc2)nc(N2CCOCC2)nc1C(=O)NCCOc1ccccc1`, the EC50 [7] was 2.04 µM.

Work on `NC(=O)c1ncn([C@@H]2O[C@H](CO)[C@@H](O)[C@H]2O)n1` [Tribavirin] yielded an EC50 [8] of 20.8 µM.

`O=C(NC(=S)Nc1ccc(N2CCN(C(=O)c3cccs3)CC2)cc1)c1sc2ccccc2c1Cl` showed an EC50 [9] of 0.094 µM.

In the case of `CC[C@H]1CN2CCc3cc(OC)c(OC)cc3[C@@H]2C[C@@H]1C[C@H]1NCCc2cc(OC)c(OC)cc21` [6',7',10,11-tetramethoxyemetan], the EC50 [10] is reported as 0.053 µM and the EC50 [11] is reported as 0.0087 µM.

`Nc1ncnc2c1ccn2[C@@H]1O[C@H](CO)[C@@H](O)[C@H]1O` ['2-(4-AMINO-PYRROLO[2,3-D]PYRIMIDIN-7-YL)-5-HYDROXYMETHYL-TETRAHYDRO-FURAN-3,4-DIOL] showed an EC50 [12] of 1.3 µM, an EC50 [13] of 1.3 µM and an EC50 [14] of 1.3 µM. It also gave an EC50 [15] of 1.3 µM.

For `C#C[C@@]1(O)[C@H](O)[C@@H](COP(=O)(N[C@@H](C)C(=O)OC(C)C)Oc2ccccc2)O[C@H]1n1ccc(=O)[nH]c1=O` (stereo partly specified), the EC50 [4] was 0.8 µM and the EC50 [5] was 0.3 µM.

`Nc1ncnc2c([C@@H]3N[C@H](CO)[C@@H](O)[C@H]3O)c[nH]c12` [BCX-4430] gave an EC50 [16] of 14.3 µM, an EC50 [17] of 14.3 µM and an EC50 [18] of 14.3 µM. The EC50 [19] was 14.3 µM, the EC50 [20] was 14.3 µM and the EC50 [21] was 14.3 µM. For the same compound, the EC50 [22] was 14.3 µM and the EC50 [23] was 14.3 µM.

`CC(C)OC(=O)[C@H](C)N[P@](=O)(OC[C@H]1O[C@@H](n2ccc(=O)[nH]c2=O)[C@](C)(F)[C@@H]1O)Oc1ccccc1` [CHEBI:85083] gave an EC50 [24] of 0.12 µM and an EC50 [25] of 30.9 µM.

With `C#C[C@@]1(O)[C@H](O)[C@@H](CO)O[C@H]1n1ccc2c(N)ncnc21` [NITD008] the EC50 [26] was 0.137 µM, the EC50 [27] was 0.137 µM and the EC50 [28] was 0.137 µM. For the same compound, the EC50 [29] was 0.137 µM.
